Measurements from patent publication US20210045385A1, “PYRIDAZINONE-SUBSTITUTED KETOXIMES AS HERBICIDES” (FMC Corporation, priority 2018, published 2021).

Key:
Assay type in all cases: in vivo
[1] = test system: foxtail, giant (giant foxtail, Setaria faberii); experiment: Test A postemergence, visual plant response rating; conditions: Postemergence, 125 g ai/ha; 0 to 100 scale (0 no effect, 100 complete control)
Source text: (§1) Seeds of plant species selected from barnyardgrass (Echinochloa crus-galli), kochia (Kochia scoparia), ragweed (common ragweed, Ambrosia elatior), Italian ryegrass (Lolium multiflorum), foxtail, giant (giant foxtail, Setaria faberii), foxtail, green (green foxtail, Setaria viridis), and pigweed (Amaranthus retroflexus) were planted into a blend of loam soil and sand and treated preemergence with a directed soil spray using test chemicals formulated in a non-phytotoxic solvent mixture which included a surfactant.
(§2) At the same time, plants selected from these weed species and also wheat (Triticum aestivum), corn (Zea mays), blackgrass (Alopecurus myosuroides), and galium (catchweed bedstraw, Galium aparine) were planted in pots containing the same blend of loam soil and sand and treated with postemergence applications of test chemicals formulated in the same manner. Plants ranged in height from 2 to 10 cm and were in the one- to two-leaf stage for the postemergence treatment. Treated plants and untreated controls were maintained in a greenhouse for approximately 10 days, after which time all treated plants were compared to untreated controls and visually evaluated for injury. Plant response ratings, summarized in Table A, are based on a 0 to 100 scale where 0 is no effect and 100 is complete control. A dash (-) response means no test result.

corn (Zea mays) = experiment: Test A postemergence, visual plant response rating; conditions: Postemergence, 125 g ai/ha; 0 to 100 scale (0 no effect, 100 complete control)
Source text: as §1, §2

[2] = test system: ragweed (common ragweed, Ambrosia elatior); experiment: Test A postemergence, visual plant response rating; conditions: Postemergence, 125 g ai/ha; 0 to 100 scale (0 no effect, 100 complete control)
Source text: as §1, §2

[3] = test system: galium (catchweed bedstraw, Galium aparine); experiment: Test A postemergence, visual plant response rating; conditions: Postemergence, 125 g ai/ha; 0 to 100 scale (0 no effect, 100 complete control)
Source text: as §1, §2

[4] = test system: Italian ryegrass (Lolium multiflorum); experiment: Test A postemergence, visual plant response rating; conditions: Postemergence, 125 g ai/ha; 0 to 100 scale (0 no effect, 100 complete control)
Source text: as §1, §2

kochia (Kochia scoparia) [5] = experiment: Test A postemergence, visual plant response rating; conditions: Postemergence, 125 g ai/ha; 0 to 100 scale (0 no effect, 100 complete control)
Source text: as §1, §2

[6] = test system: pigweed (Amaranthus retroflexus); experiment: Test A postemergence, visual plant response rating; conditions: Postemergence, 125 g ai/ha; 0 to 100 scale (0 no effect, 100 complete control)
Source text: as §1, §2

[7] = test system: barnyardgrass (Echinochloa crus-galli); experiment: Test A postemergence, visual plant response rating; conditions: Postemergence, 125 g ai/ha; 0 to 100 scale (0 no effect, 100 complete control)
Source text: as §1, §2

[8] = test system: blackgrass (Alopecurus myosuroides); experiment: Test A postemergence, visual plant response rating; conditions: Postemergence, 125 g ai/ha; 0 to 100 scale (0 no effect, 100 complete control)
Source text: as §1, §2

[9] = test system: wheat (Triticum aestivum); experiment: Test A postemergence, visual plant response rating; conditions: Postemergence, 125 g ai/ha; 0 to 100 scale (0 no effect, 100 complete control)
Source text: as §1, §2

[10] = test system: foxtail, giant (giant foxtail, Setaria faberii); experiment: Test A preemergence, visual plant response rating; conditions: 125 g ai/ha, preemergence; 0 to 100 scale, 0 no effect, 100 complete control
Source text: as §1, §2

[11] = test system: ragweed (common ragweed, Ambrosia elatior); experiment: Test A preemergence, visual plant response rating; conditions: 125 g ai/ha, preemergence; 0 to 100 scale, 0 no effect, 100 complete control
Source text: as §1, §2

[12] = test system: Italian ryegrass (Lolium multiflorum); experiment: Test A preemergence, visual plant response rating; conditions: 125 g ai/ha, preemergence; 0 to 100 scale, 0 no effect, 100 complete control
Source text: as §1, §2

kochia (Kochia scoparia) [13] = experiment: Test A preemergence, visual plant response rating; conditions: 125 g ai/ha, preemergence; 0 to 100 scale, 0 no effect, 100 complete control
Source text: as §1, §2

[14] = test system: pigweed (Amaranthus retroflexus); experiment: Test A preemergence, visual plant response rating; conditions: 125 g ai/ha, preemergence; 0 to 100 scale, 0 no effect, 100 complete control
Source text: as §1, §2

[15] = test system: barnyardgrass (Echinochloa crus-galli); experiment: Test A preemergence, visual plant response rating; conditions: 125 g ai/ha, preemergence; 0 to 100 scale, 0 no effect, 100 complete control
Source text: as §1, §2

CO/N=C(\c1cc(C(F)(F)F)ccc1Cl)c1c(O)c(C)nn(C)c1=O [Compound 54]
Foxtail, Giant plant response rating [1]: 40
Corn plant response rating (corn (Zea mays)): 10
Ragweed plant response rating [2]: 60
Galium plant response rating [3]: 70
Ryegrass, Italian plant response rating [4]: 40
Kochia plant response rating (kochia (Kochia scoparia) [5]): 50
Pigweed plant response rating [6]: 60
Barnyardgrass plant response rating [7]: 30
Blackgrass plant response rating [8]: 40
Wheat plant response rating [9]: 30
Foxtail, Giant plant response rating [10]: 40
Ragweed plant response rating [11]: 70
Ryegrass, Italian plant response rating [12]: 70
Kochia plant response rating (kochia (Kochia scoparia) [13]): 0
Pigweed plant response rating [14]: 80
Barnyardgrass plant response rating [15]: 40
